Results on three compounds are retold here after patent publication US10307398B2, “Resuscitation composition and methods of making and using” (Regents of the University of Minnesota, priority 2016, dated 2019).

Series [1] is described as follows: water vapor sorption of BHB. The series is classed as physicochemical. The following applies: 25° C. As to the method:
Water vapor sorption. About 5 mg of sample was placed in the quartz sample pan of an automated vapor sorption balance (DVS-1000, Surface Measurement Systems, London, UK), maintained at 25° C. It was dried under dry nitrogen purge (flow rate 200 mL/min) to constant weight. Equilibrium was assumed to have been achieved if the mass change was <0.001% over 30 min. […] Equilibrium was assumed to have been achieved if the mass change was <0.005% over 30 min. The microbalance was calibrated periodically using a 100 mg standard weight.
In order to gain a deeper understanding into the water-BHB interaction, the ‘as is’ BHB was heated in the TGA up to 120° C., cooled to RT and transferred to the sample chamber of the water sorption analyzer. The other relevant details are provided in the Experimental section. There was no water sorption up to 15% RH and then the sample gained ˜3% water at 20% RH (FIG. 10). This is in excellent agreement with the water content in ‘as is’ BHB. […] However, under the experimental conditions in the water sorption analyzer (maximum dwell time of 360 minutes at any RH), equilibrium was not attained. Therefore, when the RH was further increased to 55%, a pronounced weight increase again was observed. […] There were two RH ranges, (0-20% and 35-55%) where hysteresis was observed.

For series [2] the following is noted: cited from earlier work.
A short description of series [3]: solubility of melatonin in excipient solutions. The series is classed as physicochemical. The following applies: aqueous with cosolvent or surfactant or cyclodextrin, thermodynamic from solid. As to the method: A saturated melatonin solution was prepared containing the indicated excipient concentrations and incubated end over end at room temperature for 72 hours. After 72 hours, solutions were filtered through a […] filter and diluted 1:10. Absorption was measured spectrophotometrically at 287 nm (excipient solutions alone were used as blanks).

Series [4] in a line: physchem. As to the method: Assuming formation of 1:1 complex between drug and ligand, the complexation efficiency (CE) can be calculated from the slope of the phase-solubility diagram:
[formula] where So is the intrinsic substrate solubility and k1:1 stability constant of the complex.
Solubility Studies. […] An excess amount of MLT was added either to water or PVP solution (concentration ranging from 0.1 to 20% w/v) in polypropylene tubes (protected from light) and incubated with end-over-end rotation at 25° C. until equilibrium was achieved (72 hours). An aliquot was filtered (0.45 μm membrane) and the absorption measured at 270 nm (Epoch microplate spectrophotometer, BioTek, Winooski, Vt.).
PVP is known to form water soluble or insoluble complexes with various drugs with either enhancement or reduction in solubility.

Values after ≈ are worked out from the molar mass of the structure shown. Values joined by “and” are separate entries in the source; they are usually repeats but may differ in a detail not shown here. Equal entries are not always repeated.

In the case of `C[C@@H](O)CC(=O)O` [BHB, D-β-hydroxybutyrate], the “water gain (water sorption)” value in series [1] (at 20% RH, BHB previously heated to 120° C.) was roughly 3%. The “increase in weight (water sorption, deliquescence)” value in series [1] (at 50% RH) is recorded as roughly 40%.

Usually solubility stands for the dissolved amount per volume that the medium holds. Take `CC(O)COC[C@H]1O[C@@H]2O[C@H]3[C@H](O)[C@@H](O)[C@@H](O[C@H]4[C@H](O)[C@@H](O)[C@@H](O[C@H]5[C@H](O)[C@@H](O)[C@@H](O[C@H]6[C@H](O)[C@@H](O)[C@@H](O[C@H]7[C@H](O)[C@@H](O)[C@@H](O[C@H]8[C@H](O)[C@@H](O)[C@@H](O[C@H]1[C@H](O)[C@H]2O)O[C@@H]8COCC(C)O)O[C@@H]7COCC(C)O)O[C@@H]6COCC(C)O)O[C@@H]5COCC(C)O)O[C@@H]4COCC(C)O)O[C@@H]3COCC(C)O` (stereo partly drawn) [HPbCD, Hydroxypropyl-beta-cyclodextrin]: in series [2], the solubility result is “exceeds 600 mg/ml”.

As usually defined, the solubility (thermodynamic) is the concentration in solution at equilibrium with solid. Consider `COc1ccc2[nH]cc(CCNC(C)=O)c2c1` [melatonin, 5-methoxy-N-acetyltryptamine], for which the solubility at 72 h in series [3] (10% HPbCD/5% PEG400/5% PVP K12 solution, in 10% HPbCD/5% PEG400/5% PVP K12, room temperature) is > 43000 µM and > 10000 µg/mL. Besides, the solubility at 72 h in series [3] (20% PVP solution, in 20% PVP, room temperature) is > 43000 µM and > 10000 µg/mL. Further, in series [4], the “molar ratio of total drug to free drug” value is 1.17 and the “slope of the phase solubility diagram” value was determined as 0.030. Besides, the thermodynamic solubility at 72 h in series [4] (25 °C, water, thermodynamic from solid) is roughly 8 mM (≈ 1860 µg/mL).
